Experiment [1] deals with T1, Peroxisome proliferator-activated receptor alpha (Mus musculus) (UniProt P23204).
T1 sequence (whole entry): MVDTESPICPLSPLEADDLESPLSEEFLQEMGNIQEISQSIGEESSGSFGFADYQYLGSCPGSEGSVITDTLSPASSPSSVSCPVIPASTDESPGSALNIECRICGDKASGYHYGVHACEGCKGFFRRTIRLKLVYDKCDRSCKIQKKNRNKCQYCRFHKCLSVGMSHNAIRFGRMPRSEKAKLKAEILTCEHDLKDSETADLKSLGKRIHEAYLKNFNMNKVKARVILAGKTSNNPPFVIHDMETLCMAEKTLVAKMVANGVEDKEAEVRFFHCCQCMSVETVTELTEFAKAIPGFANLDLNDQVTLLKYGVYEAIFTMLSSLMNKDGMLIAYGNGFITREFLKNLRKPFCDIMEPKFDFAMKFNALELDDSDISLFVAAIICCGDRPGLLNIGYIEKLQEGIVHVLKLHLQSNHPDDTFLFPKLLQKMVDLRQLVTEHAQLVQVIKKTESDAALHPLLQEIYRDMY
Kind of experiment: Agonist activity at mouse PPARalpha receptor in monkey COS7 cells assessed as activation of CAT reporter gene at 300 uM by transactivation assay relative to Wy,14-643. In kind it is functional, cell-based. To be noted: COS-7. On the technique in general: Reporter assays use an easily measured gene product as a stand-in for the process of interest.

Experiment [2] addresses Beta-1 adrenergic receptor (Homo sapiens) (UniProt P08588). Kind of experiment: Displacement of [3H]dihydroalprenolol from human adrenergic beta-1 receptor expressed in CHO cells at 10 uM. The experiment is classed as cell-based. In general terms: Displacement assays read how much labelled ligand stays bound in the presence of the test substance.
The target of experiment [3] is T1, Peroxisome proliferator-activated receptor alpha (Mus musculus). Nature of the experiment: Agonist activity at mouse PPARalpha receptor in monkey COS7 cells assessed as activation of CAT reporter gene at 150 uM by transactivation assay relative to Wy,14-643. The experiment is classed as functional, cell-based. Conditions: COS-7.
The target in experiment [4] is T2, Beta-3 adrenergic receptor (Homo sapiens, UniProt P13945). Nature of the experiment: Agonist activity at human adrenergic beta-3 receptor expressed in CHO cells assessed as cAMP levels by DELFIA method. The experiment is classed as functional, cell-based. For orientation: cAMP levels reflect the balance of adenylyl cyclase and phosphodiesterase activity.
T2 sequence (P13945 whole entry): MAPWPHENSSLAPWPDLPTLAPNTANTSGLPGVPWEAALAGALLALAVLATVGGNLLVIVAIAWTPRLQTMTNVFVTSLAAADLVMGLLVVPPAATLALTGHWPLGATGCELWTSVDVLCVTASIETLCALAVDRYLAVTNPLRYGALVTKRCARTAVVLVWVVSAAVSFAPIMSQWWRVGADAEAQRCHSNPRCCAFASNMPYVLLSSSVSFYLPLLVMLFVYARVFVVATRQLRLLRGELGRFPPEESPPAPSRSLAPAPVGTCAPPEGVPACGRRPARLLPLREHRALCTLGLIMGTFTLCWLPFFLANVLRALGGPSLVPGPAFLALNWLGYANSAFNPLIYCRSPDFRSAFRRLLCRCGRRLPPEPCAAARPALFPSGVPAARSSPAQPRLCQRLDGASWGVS
The target in experiment [5] is Beta-2 adrenergic receptor (Homo sapiens) (UniProt P07550). Kind of experiment: Displacement of [3H]dihydroalprenolol from human adrenergic beta-2 receptor expressed in CHO cells at 10 uM. In kind it is cell-based.
Beta-2 adrenergic receptor (Homo sapiens), sequence (P07550 whole entry, looked up): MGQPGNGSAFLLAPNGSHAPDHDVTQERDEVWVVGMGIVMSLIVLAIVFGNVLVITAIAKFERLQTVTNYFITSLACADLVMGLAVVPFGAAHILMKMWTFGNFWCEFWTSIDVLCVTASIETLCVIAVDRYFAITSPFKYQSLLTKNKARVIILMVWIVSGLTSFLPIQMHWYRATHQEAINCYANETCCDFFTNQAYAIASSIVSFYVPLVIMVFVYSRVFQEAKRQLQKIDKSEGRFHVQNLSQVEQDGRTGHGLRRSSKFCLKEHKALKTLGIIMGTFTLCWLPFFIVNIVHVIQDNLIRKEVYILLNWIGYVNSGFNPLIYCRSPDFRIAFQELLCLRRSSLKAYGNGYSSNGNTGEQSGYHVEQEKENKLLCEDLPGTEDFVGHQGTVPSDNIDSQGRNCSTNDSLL
In experiment [6] the target is T1, Peroxisome proliferator-activated receptor alpha (Mus musculus). Kind of experiment: Agonist activity at mouse PPARalpha receptor in monkey COS7 cells assessed as activation of CAT reporter gene at 50 uM by transactivation assay relative to Wy,14-643. In kind it is functional, cell-based. To be noted: COS-7.
Experiment [7] addresses Beta-3 adrenergic receptor (Rattus norvegicus) (UniProt P26255). Nature of the experiment: Antagonist activity at adrenergic beta-3 receptor in rat proximal colon assessed as colon motility. The experiment is classed as functional, tissue-based.
In experiment [8] the target is T1, Peroxisome proliferator-activated receptor alpha (Mus musculus). Nature of the experiment: Agonist activity at mouse PPARalpha receptor in monkey COS7 cells assessed as activation of CAT reporter gene at 2 uM by transactivation assay relative to Wy,14-643. In kind it is functional, cell-based. Conditions: COS-7.
The target of experiment [9] is T2, Beta-3 adrenergic receptor.
Description: Agonist activity at human adrenergic beta3 receptor expressed in CHO cells assessed as [3H]cAMP levels by radiolabeled ligand based assay

pEC50: −log10 of the molar value. Active and inactive are the calls of the source. The rule behind the calls is not given here.

Beta-1 adrenergic receptor (Homo sapiens), sequence (P08588 whole entry, looked up): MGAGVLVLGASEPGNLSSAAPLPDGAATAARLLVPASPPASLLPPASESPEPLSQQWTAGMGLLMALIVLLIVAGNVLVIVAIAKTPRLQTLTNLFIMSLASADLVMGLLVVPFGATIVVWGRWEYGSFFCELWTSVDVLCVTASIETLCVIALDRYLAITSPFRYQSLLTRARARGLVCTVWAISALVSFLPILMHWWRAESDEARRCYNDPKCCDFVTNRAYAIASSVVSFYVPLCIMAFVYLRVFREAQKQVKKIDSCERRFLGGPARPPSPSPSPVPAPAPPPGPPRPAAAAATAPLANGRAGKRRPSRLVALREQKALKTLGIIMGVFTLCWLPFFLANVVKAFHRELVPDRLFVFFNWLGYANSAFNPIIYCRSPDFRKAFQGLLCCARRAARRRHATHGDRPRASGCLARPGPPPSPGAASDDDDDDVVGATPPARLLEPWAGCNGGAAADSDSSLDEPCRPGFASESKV
Beta-3 adrenergic receptor (Rattus norvegicus), sequence (P26255 whole entry): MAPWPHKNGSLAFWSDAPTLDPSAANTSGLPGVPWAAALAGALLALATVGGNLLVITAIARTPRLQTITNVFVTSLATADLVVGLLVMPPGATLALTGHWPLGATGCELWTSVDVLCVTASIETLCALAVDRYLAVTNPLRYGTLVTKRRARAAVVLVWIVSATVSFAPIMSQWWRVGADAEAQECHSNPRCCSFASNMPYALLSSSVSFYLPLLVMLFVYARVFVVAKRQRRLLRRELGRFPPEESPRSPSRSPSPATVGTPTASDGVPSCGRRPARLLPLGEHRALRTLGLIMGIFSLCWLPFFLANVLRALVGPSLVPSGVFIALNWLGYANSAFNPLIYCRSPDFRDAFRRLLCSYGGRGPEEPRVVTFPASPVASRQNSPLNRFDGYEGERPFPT

Turning to `CC(Oc1ccc(CCNCC(O)c2ccccc2)cc1)C(=O)O` (racemic), the Activity in [1] was 1.8%; in experiment [3] it was 1.9%; in experiment [6], 1.5%. For the same compound, the results for the inhibition in [2] and in [5] were 37% and 24%, respectively. In experiment [4], the pEC50 is 8.42.
Regarding `CC(C)(Oc1ccc(CCNC[C@H](O)c2ccccc2)cc1)C(=O)O`, the figures for the Activity in experiment [1], in experiment [3] and in [6] were 1.5%, 1.5% and 1.3%, respectively. The inhibition was 8% in experiment [2] and 1% in experiment [5].
`C[C@H](Oc1ccc(CCNC[C@H](O)c2ccccc2)cc1)C(=O)O` (single isomer, unassigned): the Activity in experiment [1] amounted to 1.5%; in experiment [3] it was 1.8%; in experiment [6] it was 1.6%. The inhibition in experiment [2] worked out at 28%; in experiment [5] it was 1%. In experiment [4], the pEC50 was 8.57.
Take `C[C@@H](Oc1ccc(CCNC[C@H](O)c2ccccc2)cc1)C(=O)O`: the Activity in [1] was found to be 2.6%; in experiment [3], 1.5%; in [6], 1.1%. Further, the inhibition is 6% in experiment [2] and 2% in [5]. Further, in [4], the pEC50 is 6.63.
Take `CC(C)(Oc1ccc(CCNC[C@@H](O)c2ccccc2)cc1)C(=O)O`: the Activity in experiment [1] is 2.1%; in [3] it was 1.5%; in [6], 1.7%. Also, the results for the inhibition in [2] and in [5] were 13% and 5%, respectively.
Turning to `C[C@@H](Oc1ccc(CCNC[C@@H](O)c2ccccc2)cc1)C(=O)O` (single isomer, unassigned), the Activity in experiment [1] came to 3.6%; in experiment [3], 2%; in experiment [6], 1.3%. Besides, the values for the inhibition in experiment [2] and in experiment [5] were 10% and 1%, respectively. Further, the pEC50 in [4] is 6.87. The result in [7] was Active.
Regarding `Cc1cccc(Nc2cc(Cl)nc(SCC(=O)O)n2)c1C`, the Activity in experiment [8] came out at 100%.
In the case of `C[C@H](Oc1ccc(CCNC[C@@H](O)c2ccccc2)cc1)C(=O)O`, the results for the Activity in experiment [1], in [3] and in experiment [6] were 1.8%, 1% and 1%, respectively. Further, the values for the inhibition in experiment [2] and in experiment [5] were 14% and 9%, respectively. The pEC50 in experiment [4] is 6.74. In [7], the outcome was Active.
Consider `CCOC(=O)C(C)(C)Oc1ccc(Cl)cc1`, for which the values for the Activity in experiment [1], in experiment [3] and in experiment [6] were 89.9%, 11% and 12.6%, respectively.
For `CC(C)(Oc1ccc(CCNCC(O)c2ccccc2)cc1)C(=O)O` (racemic), the Activity in experiment [1] was 1.8%; in [3], 1.7%; in experiment [6], 2%. The inhibition came to 18% in experiment [2] and 24% in experiment [5]. Also, the pEC50 in experiment [4] was 8.31.
`CNC[C@H](O)c1ccc(O)c(O)c1` [EPINEPHRINE]: the pEC50 is 7.31 in [9] and 7.51 in experiment [4].
With `CC(C)(Oc1ccc(Cl)cc1)C(=O)O`, the Activity in [1] amounted to 86.5%.

The term inhibition denotes how much of the control response was suppressed. As usually defined, the pEC50 is the EC50 on a negative log10 scale, so that one unit is a factor of ten.
